Legend:
[1] = test system: PMA-induced ROS production in human neutrophils; test: luminol chemiluminescence assay of PMA induced ROS production; format: cell-based
Protocol: Human neutrophils (2×10^5) were stimulated in HBSS supplemented with 0.1% BSA, 1 mM Ca2+, 1 mM Mg2+ and with fMLP (10 μM), PMA (300 nM) or glucose oxidase (200 mU/ml) for 30 min in the presence of 10 μM [8-amino-5-chloro-7-phenylpyrido[3,4-d]pyridazine-1,4(2H,3H)dione] (L012).
Chemiluminescence was measured using GloMax®-96 Microplate Luminometer (Promega) (Tarpey et al., (2004) Am J Physiol Regul Integr Comp Physiol 286: R431-R444, hereby incorporated by reference in its entirety). The generation of […] by the xanthine/xanthine oxidase was performed in PBS supplemented with xanthine oxidase (0.004 U), HRP (0.005 U·mL^−1) and L012, following the protocol described in Wind et al., (2010) Br J Pharmacol. 161, 885-898, hereby incorporated by reference in its entirety. The reaction was started by the addition of xanthine (0.5 mM).

NOX4 = molecular target: T1, NOX4 (Homo sapiens, UniProt Q9NPH5); test: NOX4 mediated ROS production, luminol chemiluminescence with HRP; format: cell-based, mouse; conditions: 10 μM, 30 min
T1 construct: expressed in transfected cells; host or cells: primary mouse neutrophils (C57Bl/6 bone marrow), Amaxa nucleofection
T1 sequence (Q9NPH5 1-578): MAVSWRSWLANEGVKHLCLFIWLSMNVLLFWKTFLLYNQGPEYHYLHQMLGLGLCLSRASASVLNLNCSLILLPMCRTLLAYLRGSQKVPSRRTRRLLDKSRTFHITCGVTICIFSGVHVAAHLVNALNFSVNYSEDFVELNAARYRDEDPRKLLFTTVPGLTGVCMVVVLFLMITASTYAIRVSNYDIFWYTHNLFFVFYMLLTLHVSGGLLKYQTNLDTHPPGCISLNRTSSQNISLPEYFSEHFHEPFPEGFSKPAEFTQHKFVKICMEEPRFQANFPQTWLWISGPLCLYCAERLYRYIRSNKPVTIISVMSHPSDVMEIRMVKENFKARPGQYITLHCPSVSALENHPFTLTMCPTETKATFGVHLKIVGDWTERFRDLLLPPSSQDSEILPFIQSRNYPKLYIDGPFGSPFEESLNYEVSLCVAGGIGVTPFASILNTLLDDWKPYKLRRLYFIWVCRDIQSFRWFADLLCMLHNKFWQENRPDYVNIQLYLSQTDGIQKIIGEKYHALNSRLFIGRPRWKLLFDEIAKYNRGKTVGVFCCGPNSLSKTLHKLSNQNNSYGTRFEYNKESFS
T1 sequence (Q61462 1-192 partner): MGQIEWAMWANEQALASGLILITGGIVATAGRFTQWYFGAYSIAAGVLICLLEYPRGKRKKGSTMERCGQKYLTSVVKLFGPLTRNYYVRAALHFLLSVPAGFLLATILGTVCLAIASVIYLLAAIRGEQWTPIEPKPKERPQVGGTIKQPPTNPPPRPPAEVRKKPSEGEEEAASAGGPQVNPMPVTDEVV
Protocol: Primary mouse neutrophils were suspended in 100 μl NucleofectorR solution with 10 μg plasmid pCDNA3-NOX4 encoding NOX4 or mock vector. Cells were transfected using a Cell Line V NucleofactorTMR kit (Amaxa Biosystem, Amaxa Inc.) and the NucleofectorTM program Y-001. Cells were recovered at 37° C. for 2 hours and subjected to the luminol chemiluminescence assay using 10 μM L012 and HRP (0.005 U·mL^−1) to record ROS produced by NOX4 expression.
Phox-I1 was then applied to primary murine neutrophils expressing the constitutively active NOX4. […] To further rule out that Phox-I1 and Phox-I2 may simply act as scavengers of ROS, dHL-60 cells were pre-stimulated with fMLP for 30 min prior to treatment with Phox-I1 or Phox-I2.

[2] = test system: primary murine neutrophils; test: H2-DCFDA FACS ROS production assay in primary murine neutrophils; format: cell-based, mouse; conditions: 10 μM and 20 μM
Protocol: HL-60 cells were propagated in RPMI 1640 medium containing 10% heat inactivated fetal bovine serum, 2 mM L-glutamine, 100 U/mL penicillin/streptomycin at 37° C. in air containing 5% CO2. For differentiation, HL-60 cells were cultured in 1.3% dimethyl sulfoxide (DMSO) as previously described (Servant, G., et al. (1999) Mol Biol Cell 10, 1163-1178, hereby incorporated by reference in its entirety). Primary murine neutrophils were isolated from C57Bl/6 mouse bone marrow according to a published protocol (Filippi et al., (2004) Nat Immunol 5, 744-751, hereby incorporated by reference in its entirety) using a discontinuous Percoll (Pharmacia) gradient and were utilized immediately in experiments. […]
Cells (5×10^5) were harvested and processed for Annexin V/7AAD staining according to manufacturer's protocol (Becton Dickinson). Flow cytometry data were acquired on a FACS Canto bench-top flow cytometer (Becton Dickinson) and the cell cycle distributions were determined by […] using Flo-Jo software (Bosco et al (2010) Blood 115, 3320-3328, hereby incorporated by reference in its entirety). […] Cells were then stimulated with 10 μM fMLP (Sigma), 1 mM CaCl2, and 1.5 mM MgCl2 for 15 minutes prior to wash and FACS analysis for mean fluorescence intensity. […]

NOX4 ROS production (NOX4): unresponsive
SMILES: COc1ccc2c(c1)C1C=C(c3ccccc3)NN1C(c1cccc([N+](=O)[O-])c1)O2 (stereo not drawn) [Phox-I1]
effect on PMA-induced ROS production [1]: did not affect
inhibition of fMLP-stimulated ROS production [2]: able to inhibit ROS production nearly as well as DPI at 100 μM concentration

Reference: US9567347B2, “Use of small molecule inhibitors targeting the interaction between RAC GTPase and p67(phox)” (CHILDREN'S HOSPITAL MEDICAL CENTER, priority 2012, dated 2017)
